Consider twelve molecules from patent US12180193B2, “Accelerating fibrosarcoma protein degrading compounds and associated methods of use” (Arvinas Operations, Inc., priority 2020, dated 2024).

As a reminder, the DC50 is the concentration giving 50% degradation. The term Dmax denotes the greatest extent of degradation seen. Low readings indicate a partial loss of target, high ones a fuller loss of target.

Experiment [1] deals with T1, BRAF V600E (Homo sapiens, UniProt P15056, V600E).
T1 construct: expressed in transfected cells
The experiment in a line: Cellular assay of target protein degradation, T-Rex 293 cells stably transfected with HA-BRAF_V600E (HA immunofluorescence, high content imaging). The conditions noted are these: T-Rex 293 HA-BRAF V600E; for DC50: half maximal degradation, read-out: BRaf V600E DC50; for Dmax: maximum degradation observed. In kind it is cell-based. A digest of the protocol: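 Doxycycline-induced (1 ng/mL) cells were treated 24 h at 37 °C with compound at 1 μM to 0.1 nM final in 0.1% DMSO. After fixation, permeabilization and blocking, anti-HA staining was imaged by high-content reading; DC50 and Dmax (% of control) were derived.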

The target of experiment [2] is T2, BRAF G466V (Homo sapiens, UniProt P15056, G466V).
T2 construct: expressed in transfected cells
Description: Cellular assay of target protein degradation, T-Rex 293 cells stably transfected with HA-BRAF G466V (HA immunofluorescence, high content imaging). Type of experiment: cell-based. The conditions noted are these: T-Rex 293 HA-BRAF G466V; for DC50: half maximal degradation, read-out: BRaf G466V DC50; for Dmax: maximum degradation observed. The method in brief:
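Cells expressing doxycycline-induced (0.75 ng/mL) HA-BRAF G466V were treated with compound at 30 nM to 3 pM in 0.1% DMSO for 24 hours at 37° C. After fixation and permeabilization, HA was immunostained and quantified by high content imaging to derive DC50 and Dmax.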

T2 sequence (P15056 whole entry G466V): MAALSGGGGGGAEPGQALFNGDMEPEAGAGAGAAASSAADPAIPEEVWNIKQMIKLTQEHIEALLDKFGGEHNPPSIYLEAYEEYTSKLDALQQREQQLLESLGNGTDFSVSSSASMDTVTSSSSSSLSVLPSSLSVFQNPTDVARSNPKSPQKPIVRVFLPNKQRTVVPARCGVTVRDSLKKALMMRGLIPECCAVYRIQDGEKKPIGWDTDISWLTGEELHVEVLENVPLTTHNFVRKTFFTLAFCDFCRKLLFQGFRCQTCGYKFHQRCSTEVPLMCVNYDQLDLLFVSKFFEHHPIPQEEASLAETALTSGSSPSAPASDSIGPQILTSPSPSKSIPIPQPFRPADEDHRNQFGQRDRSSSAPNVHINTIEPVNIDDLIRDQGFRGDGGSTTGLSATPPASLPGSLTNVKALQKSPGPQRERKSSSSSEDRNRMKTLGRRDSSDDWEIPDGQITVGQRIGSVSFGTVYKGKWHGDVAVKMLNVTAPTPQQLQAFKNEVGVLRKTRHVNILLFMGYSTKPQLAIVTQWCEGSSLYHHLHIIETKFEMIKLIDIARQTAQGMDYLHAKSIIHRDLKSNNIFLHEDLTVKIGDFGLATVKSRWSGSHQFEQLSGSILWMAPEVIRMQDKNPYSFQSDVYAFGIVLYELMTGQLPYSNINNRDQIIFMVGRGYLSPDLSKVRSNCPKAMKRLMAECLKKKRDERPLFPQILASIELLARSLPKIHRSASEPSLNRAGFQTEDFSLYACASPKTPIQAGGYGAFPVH
T1 sequence (P15056 whole entry V600E): as the sequence (P15056 whole entry G466V) above, with V466G, V600E counted along it

For `COc1cc(OCCN2CCN(CCOc3ccc(-c4cnc5[nH]cc(C(=O)c6c(F)ccc(NS(=O)(=O)N7CC[C@@H](F)C7)c6F)c5c4)cc3)CC2)cc2c1C(=O)N([C@@H]1CCC(=O)NC1=O)C2` [Compound 45, (3R)-N-(3-{5-[4-(2-{4-[2-({2-[(3R)-2,6-dioxopiperidin-3-yl]-7-methoxy-1-oxo-2,3-dihydro-1H-isoindol-5-yl}oxy)ethyl]piperazin-1-yl}ethoxy)phenyl]-1H-pyrrolo[2,3-b]pyridine-3-carbonyl}-2,4-difluorophenyl)-3-fluoropyrrolidine-1-sulfonamide], in experiment [1], the DC50 lay within 5 to 50 nM and the Dmax is 35 to 70%. Moreover, in experiment [2], the 50% degradation concentration (DC50) is less than 1 nM and the Dmax was 35 to 70%.

Consider `O=C1CCC(N2Cc3cc(C4CCN(CC5CCN(c6ncc(-c7cnc8[nH]cc(C(=O)c9c(F)ccc(NS(=O)(=O)N%10CC[C@@H](F)C%10)c9F)c8c7)cn6)CC5)CC4)ccc3C2=O)C(=O)N1` (stereo partly drawn) [Compound 46, (3R)-N-[3-(5-{2-[4-({4-[2-(2,6-dioxopiperidin-3-yl)-1-oxo-2,3-dihydro-1H-isoindol-5-yl]piperidin-1-yl}methyl)piperidin-1-yl]pyrimidin-5-yl}-1H-pyrrolo[2,3-b]pyridine-3-carbonyl)-2,4-difluorophenyl]-3-fluoropyrrolidine-1-sulfonamide], for which the DC50 in experiment [1] is 5 to 50 nM; in experiment [2] it was less than 1 nM. For the same molecule, the Dmax in experiment [1] is 35 to 70%; in experiment [2] it was more than 70%.

Consider `O=C1CCC(N2Cc3cc(N4CC5(CC(CN6CCCc7cc(-c8cnc9[nH]cc(C(=O)c%10c(F)ccc(NS(=O)(=O)N%11CC[C@@H](F)C%11)c%10F)c9c8)ccc76)C5)C4)ccc3C2=O)C(=O)N1` (stereo partly drawn) [Compound 47, (3R)-N-(3-{5-[1-({2-[2-(2,6-dioxopiperidin-3-yl)-1-oxo-2,3-dihydro-1H-isoindol-5-yl]-2-azaspiro[3.3]heptan-6-yl}methyl)-1,2,3,4-tetrahydroquinolin-6-yl]-1H-pyrrolo[2,3-b]pyridine-3-carbonyl}-2,4-difluorophenyl)-3-fluoropyrrolidine-1-sulfonamide], for which the DC50 in experiment [1] was more than 500 nM; in experiment [2], 10 to 30 nM. The greatest degradation seen (Dmax) in experiment [2] lay in the range of 35 to 70%.

Regarding `O=C1CC[C@@H](NC(=O)c2ccc(C3CCN(CC4CCN(c5ccc(-c6cnc7[nH]cc(C(=O)c8c(F)ccc(NS(=O)(=O)N9CC[C@@H](F)C9)c8F)c7c6)cc5)CC4)CC3)cc2F)C(=O)N1` [Compound 48, 4-(1-{[1-(4-{3-[2,6-difluoro-3-({[(3R)-3-fluoropyrrolidin-1-yl]sulfonyl}amino)benzoyl]-1H-pyrrolo[2,3-b]pyridin-5-yl}phenyl)piperidin-4-yl]methyl}piperidin-4-yl)-N-[(3R)-2,6-dioxopiperidin-3-yl]-2-fluorobenzamide], in experiment [1], the 50% degradation concentration (DC50) was in the range of 50 to 500 nM and the maximal degradation (Dmax) was less than 35%. Moreover, in experiment [2], the half-maximal degradation concentration (DC50) was 1 to 10 nM and the maximal degradation (Dmax) was less than 35%.

Consider `O=C1CCC(N2Cc3cc(C4CCN(CCCc5ccc(-c6cnc7[nH]cc(C(=O)c8c(F)ccc(NS(=O)(=O)N9CC[C@@H](F)C9)c8F)c7c6)cc5)CC4)ccc3C2=O)C(=O)N1` (stereo partly drawn) [Compound 49, (3R)-N-(3-{5-[4-(3-{4-[2-(2,6-dioxopiperidin-3-yl)-1-oxo-2,3-dihydro-1H-isoindol-5-yl]piperidin-1-yl}propyl)phenyl]-1H-pyrrolo[2,3-b]pyridine-3-carbonyl}-2,4-difluorophenyl)-3-fluoropyrrolidine-1-sulfonamide], for which the figures for the DC50 in experiment [1] and in experiment [2] were 5 to 50 nM and less than 1 nM, respectively. For the same molecule, the greatest degradation seen (Dmax) in experiment [1] and in experiment [2] was 35 to 70% in each case.

Turning to `O=C1CCC(N2Cc3cc(N4CC5(CN(CCOc6ccc(-c7cnc8[nH]cc(C(=O)c9c(F)ccc(NS(=O)(=O)N%10CC[C@@H](F)C%10)c9F)c8c7)cc6)C5)C4)ccc3C2=O)C(=O)N1` (stereo partly drawn) [Compound 50, (3R)-N-(3-{5-[4-(2-{6-[2-(2,6-dioxopiperidin-3-yl)-1-oxo-2,3-dihydro-1H-isoindol-5-yl]-2,6-diazaspiro[3.3]heptan-2-yl}ethoxy)phenyl]-1H-pyrrolo[2,3-b]pyridine-3-carbonyl}-2,4-difluorophenyl)-3-fluoropyrrolidine-1-sulfonamide], the DC50 is 5 to 50 nM in experiment [1] and less than 1 nM in experiment [2]. Further, the Dmax was 35 to 70% in experiment [1] and more than 70% in experiment [2].

Turning to `C[C@@]12CN(CC3CCN(c4ccc5c(c4)CN([C@H]4CCC(=O)NC4=O)C5=O)CC3)C[C@@H]1CN(c1ccc(-c3cnc4[nH]cc(C(=O)c5c(F)ccc(NS(=O)(=O)N6CC[C@@H](F)C6)c5F)c4c3)cc1)C2` [Compound 51, (3R)-N-[3-(5-{4-[(3aS,6aR)-5-[(1-{2-[(3S)-2,6-dioxopiperidin-3-yl]-1-oxo-2,3-dihydro-1H-isoindol-5-yl}piperidin-4-yl)methyl]-3a-methyl-octahydropyrrolo[3,4-c]pyrrol-2-yl]phenyl}-1H-pyrrolo[2,3-b]pyridine-3-carbonyl)-2,4-difluorophenyl]-3-fluoropyrrolidine-1-sulfonamide], in experiment [1], the DC50 is 50 to 500 nM and the Dmax was in the range of 35 to 70%. Also, in experiment [2], the DC50 is 1 to 10 nM and the greatest degradation seen (Dmax) is 35 to 70%.

Consider `C[C@@]12CN(CC3CCN(c4ccc5c(c4)CN([C@@H]4CCC(=O)NC4=O)C5=O)CC3)C[C@@H]1CN(c1ccc(-c3cnc4[nH]cc(C(=O)c5c(F)ccc(NS(=O)(=O)N6CC[C@@H](F)C6)c5F)c4c3)cc1)C2` [Compound 52, (3R)-N-[3-(5-{4-[(3aS,6aR)-5-[(1-{2-[(3R)-2,6-dioxopiperidin-3-yl]-1-oxo-2,3-dihydro-1H-isoindol-5-yl}piperidin-4-yl)methyl]-3a-methyl-octahydropyrrolo[3,4-c]pyrrol-2-yl]phenyl}-1H-pyrrolo[2,3-b]pyridine-3-carbonyl)-2,4-difluorophenyl]-3-fluoropyrrolidine-1-sulfonamide], for which, in experiment [1], the DC50 is 50 to 500 nM and the Dmax was less than 35%. In experiment [2], the 50% degradation concentration (DC50) fell in the range of 1 to 10 nM and the Dmax fell in the range of 35 to 70%.

Take `C[C@@H]1CN(c2ccc(-c3cnc4[nH]cc(C(=O)c5c(F)ccc(NS(=O)(=O)N6CC[C@@H](F)C6)c5F)c4c3)cc2)C[C@H](C)N1CC1CN(c2ccc3c(c2)CN(C2CCC(=O)NC2=O)C3=O)C1` (stereo partly drawn) [Compound 53, (3R)-N-[3-(5-{4-[(3R,5S)-4-({1-[2-(2,6-dioxopiperidin-3-yl)-1-oxo-2,3-dihydro-1H-isoindol-5-yl]azetidin-3-yl}methyl)-3,5-dimethylpiperazin-1-yl]phenyl}-1H-pyrrolo[2,3-b]pyridine-3-carbonyl)-2,4-difluorophenyl]-3-fluoropyrrolidine-1-sulfonamide]: the results for the DC50 in experiment [1] and in experiment [2] were 5 to 50 nM and less than 1 nM, respectively. Besides, the Dmax in experiment [1] was 35 to 70%; in experiment [2], more than 70%.

In the case of `COc1cc(C2CCN(CC3CC4(C3)CN(c3ccc(-c5cnc6[nH]cc(C(=O)c7c(F)ccc(NS(=O)(=O)N8CC[C@@H](F)C8)c7F)c6c5)cc3)C4)CC2)cc2c1C(=O)N(C1CCC(=O)NC1=O)C2` (stereo partly drawn) [Compound 54, (3R)-N-[3-(5-{4-[6-({4-[2-(2,6-dioxopiperidin-3-yl)-7-methoxy-1-oxo-2,3-dihydro-1H-isoindol-5-yl]piperidin-1-yl}methyl)-2-azaspiro[3.3]heptan-2-yl]phenyl}-1H-pyrrolo[2,3-b]pyridine-3-carbonyl)-2,4-difluorophenyl]-3-fluoropyrrolidine-1-sulfonamide], in experiment [1], the DC50 was 5 to 50 nM and the Dmax is 35 to 70%. Besides, in experiment [2], the DC50 was less than 1 nM and the maximal degradation (Dmax) lay within 35 to 70%.

As to `O=C1CC[C@H](N2Cc3cc(N4CCC(CN5CC6(C5)CN(c5ccc(-c7cnc8[nH]cc(C(=O)c9c(F)ccc(NS(=O)(=O)N%10CC[C@@H](F)C%10)c9F)c8c7)cc5)C6)CC4)c(F)cc3C2=O)C(=O)N1` [Compound 55, (3R)-N-{3-[5-(4-{6-[(1-{2-[(3S)-2,6-dioxopiperidin-3-yl]-6-fluoro-1-oxo-2,3-dihydro-1H-isoindol-5-yl}piperidin-4-yl)methyl]-2,6-diazaspiro[3.3]heptan-2-yl}phenyl)-1H-pyrrolo[2,3-b]pyridine-3-carbonyl]-2,4-difluorophenyl}-3-fluoropyrrolidine-1-sulfonamide], in experiment [1], the DC50 is 5 to 50 nM and the Dmax is 35 to 70%. Besides, in experiment [2], the DC50 is less than 1 nM and the greatest degradation seen (Dmax) was more than 70%.

`O=C1CC[C@@H](N2Cc3cc(N4CCC(CN5CC6(C5)CN(c5ccc(-c7cnc8[nH]cc(C(=O)c9c(F)ccc(NS(=O)(=O)N%10CC[C@@H](F)C%10)c9F)c8c7)cc5)C6)CC4)c(F)cc3C2=O)C(=O)N1` [Compound 56, (3R)-N-{3-[5-(4-{6-[(1-{2-[(3R)-2,6-dioxopiperidin-3-yl]-6-fluoro-1-oxo-2,3-dihydro-1H-isoindol-5-yl}piperidin-4-yl)methyl]-2,6-diazaspiro[3.3]heptan-2-yl}phenyl)-1H-pyrrolo[2,3-b]pyridine-3-carbonyl]-2,4-difluorophenyl}-3-fluoropyrrolidine-1-sulfonamide]: in experiment [1], the DC50 fell in the range of 5 to 50 nM and the Dmax fell in the range of 35 to 70%. In experiment [2], the DC50 is less than 1 nM and the greatest degradation seen (Dmax) is more than 70%.
